Patent US6071966A, “1-amino-alkylcyclohexane NMDA receptor antagonists” (Merz + Co. GmbH & Co., priority 1998, dated 2000)
Counter-ions that a name gives are not always drawn.

Tests used:
[1] = Traction reflex test (myorelaxant action); assay type: in vivo; details: mouse, traction reflex versus mes, ip; mice, i.p.; Table 8; read-out: TI Tract. (ED50 traction reflex impairment / ED50 MES)
Method: (§1) NMR female mice (18-28 g) housed 5 per cage were used for the maximal electroshock (MES) and motor impairment tests. […] All compounds were dissolved in 0.9% saline.
(§2) The MES test was performed together with tests for myorelaxant action (traction reflex) and motor coordination (rotarod). For the traction reflex test mice were placed with their forepaws on a horizontal rod and were required to place all 4 paws on the wire within 10 seconds. To test ataxia (motor coordination) mice were placed on rotarod (5 rpm) and were required to remain on the rod for 1 minute. […] These tests were followed by MES (100 Hz, 0.5 second shock duration, 50 mA shock intensity, 0.9 ms impulse duration, Ugo Basile) applied through corneal electrodes. The presence of tonic convulsions was scored (tonic extension of hind paws with minimum angle to the body of 90°). The aim was to obtain ED50 s for all parameters scored (anticonvulsive activity and motor side effects) with use of the Litchfield Wilcoxon test for quantal dose responses. Division of the ED50 for side effects (ataxia or myorelaxation) by the ED50 for antagonism of electroshock convulsions was used as a therapeutic index (TI). […]

[2] = Rotarod test (motor coordination, ataxia); assay type: in vivo; details: mouse, ip, mice, i.p., Table 8, read-out: TI Rot. (ED50 rotarod failure / ED50 MES)
Method: All compounds were dissolved in 0.9% saline.
(§3) The MES test was performed together with tests for myorelaxant action (traction reflex) and motor coordination (rotarod). For the traction reflex test mice were placed with their forepaws on a horizontal rod and were required to place all 4 paws on the wire within 10 seconds. To test ataxia (motor coordination) mice were placed on rotarod (5 rpm) and were required to remain on the rod for 1 minute. […] These tests were followed by MES (100 Hz, 0.5 second shock duration, 50 mA shock intensity, 0.9 ms impulse duration, Ugo Basile) applied through corneal electrodes. The presence of tonic convulsions was scored (tonic extension of hind paws with minimum angle to the body of 90°). The aim was to obtain ED50 s for all parameters scored (anticonvulsive activity and motor side effects) with use of the Litchfield Wilcoxon test for quantal dose responses. Division of the ED50 for side effects (ataxia or myorelaxation) by the ED50 for antagonism of electroshock convulsions was used as a therapeutic index (TI).
(§4) Pearson product moment correlation analysis (Sigma Stat, Jandel Scientific) was used to compare in vitro potencies and in vivo anticonvulsant activity.

[3] = i.p.; Table 8
[4] = system: MES-induced convulsions in mice; assay: Anticonvulsive activity: maximal electroshock (MES) test; assay type: in vivo; details: for MES ED50: i.p., Table 8, 30 min; for ED50: Mus musculus, ip, 0.5 h
Method: as §1, §3, §4

NMDA receptor [5] = details: clinical / human use; cited from earlier work
traction reflex in mice = assay: Traction reflex test (myorelaxant action); assay type: in vivo; details: i.p., Table 8
Method: as §1, §2

NMDA receptor [6] = assay: [3H]-(+)-MK-801 receptor binding to rat cortical membranes; details: read-out: [3H]MK-801 IC50, [3H]-(+)-MK-801 5 nM, Table 7
Method: Male Sprague-Dawley rats (200-250 g) were decapitated and their brains were removed rapidly. The cortex was dissected and homogenized in 20 volumes of ice-cold 0.32 M sucrose using a glass-Teflon homogenizer. The homogenate was centrifuged at 1000×g for 10 minutes. The pellet was discarded and the supernatant centrifuged at 20,000×g for 20 minutes. The resulting pellet was re-suspended in 20 volumes of distilled water and centrifuged for 20 minutes at 8000×g. Then the supernatant and the buffy coat were centrifuged three times (48,000×g for 20 minutes) in the presence of 50 mM Tris-HCl, pH 8.0. All centrifugation steps were carried out at 4° C. After resuspension in 5 volumes of 50 mM Tris-HCl, pH 8.0 the membrane suspension was frozen rapidly at -80° C. On the day of assay the membranes were thawed and washed four times by resuspension in 50 mM Tris-HCl, pH 8.0 and centrifugation at 48,000×g for 20 minutes. The final pellet was suspended in assay buffer. The amount of protein in the final membrane preparation was determined according to the method of Lowry with some modifications. The final protein concentration used for our studies was between 250-500 μg/ml.
Membranes were re-suspended and incubated in 50 mM Tris-HCl, pH 8.0. […] Incubations were terminated using a Millipore filter system. The samples were rinsed three times with 2.5 ml ice cold assay buffer over glass fiber filters obtained from Schleicher & Schuell under a constant vacuum. Filtration was performed as rapidly as possible. Following separation and rinse, the filters were placed into scintillation liquid (5 ml; Ultima Gold) and radioactivity retained on the filters was determined with a conventional liquid scintillation counter (Hewlett Packard, Liquid Scintillation Analyser).
IC50 s in patch clamp, excitotoxicity, and binding studies were calculated according to the four parameter alogistic equation using the Grafit computer program (Erithacus Software, England). Ki value for binding studies were then determined according to Cheng and Prusoff. Binding values presented are means ±SEM of 3-5 determinations (each performed in duplicate).

For `CCNC1(C)CC(C)(C)CC(C)(C)C1` [Mrz 2/639, N-ethyl-1-amino-1,3,3,5,5-pentamethylcyclohexane], the selectivity ratio [1] was 2.6, the selectivity ratio ([2]; rotarod versus mes) was 4.4 and the “Min Lethality” value [3] was 30 mg/kg.

For `C[C@H]1CCC[C@@](C)(N)C1` (relative stereo) [Mrz 2/631], the “Min Lethality” value [3] was > 30 mg/kg.

In the case of `C[C@]12N[C@H](Cc3ccccc31)c1ccccc12` [MK-801, (+)-5-methyl-10,11-dihydro-5H-dibenzocyclohepten-5,10-imine maleate, reference compound], the “MES ED50” value [4] is given as 0.16 mg/kg i.p and the side effects (NMDA receptor [5]) is given as “some psychotropic side effects were apparent at therapeutic doses”.

For `CCCC1(CCC)CC(C)(C)CC(C)(N)C1` (centres unmarked) [Mrz 2/626], the “TI Tract. (ED50 traction reflex impairment / ED50 MES)” value (traction reflex in mice) was 1.1.

`CC1(C)CC(CCN)CC(C)(C)C1` [Mrz 2/644] gave a selectivity ratio [1] of 0.5 and a selectivity ratio ([2]; rotarod versus mes) of 0.6.

Work on `CC[C@@]1(C)C[C@H](C)C[C@@](C)(N)C1` (relative stereo) [Mrz 2/622] yielded an IC50 (NMDA receptor [6]) of 150 µM, a selectivity ratio [1] of 1.1 and a selectivity ratio ([2]; rotarod versus mes) of 1.7.

In the case of `C[C@@H]1C[C@H](C)C[C@](C)(N)C1` [MRZ 2/681, 1-amino-1(cis),3(cis),5-trimethylcyclohexane], the “TI Tract. (ED50 traction reflex impairment / ED50 MES)” value (traction reflex in mice) is reported as 2.1 and the selectivity ratio ([2]; rotarod versus mes) is reported as 5.3.

For `CC[C@@H]1CCC[C@@](C)(N)C1` (relative stereo) [Mrz 2/629], the selectivity ratio [1] was 0.9 and the selectivity ratio ([2]; rotarod versus mes) was 0.9.

In the case of `CCCC1(N)CC(C)(C)CC(C)(C)C1` [Mrz 2/601, 1-amino-1-propyl-3,3,5,5-tetramethylcyclohexane], the “MES ED50” value [4] is reported as 15.6 mg/kg i.p, the selectivity ratio [1] is reported as 1.5 and the selectivity ratio ([2]; in vivo) is reported as 1.5. For the same compound, the “Min Lethality” value [3] was 50 mg/kg.

In the case of `CCC1(CC)CC(C)(C)CC(C)(N)C1` (centres unmarked) [Mrz 2/623, 1-amino-1,5,5-trimethyl-3,3-diethylcyclohexane], the selectivity ratio [1] is reported as 1.4, the selectivity ratio ([2]; rotarod versus mes) is reported as 1.8 and the “Min Lethality” value [3] is reported as > 30 mg/kg.

For `C[C@H]1CC(C)(C)C[C@@](C)(N)C1` (relative stereo) [Mrz 2/643], the ED50 ([4]; i.p. 30 min before, Table 7) was 16.6 mg/kg and the “TI Tract. (ED50 traction reflex impairment / ED50 MES)” value (traction reflex in mice) was 1.3.

Work on `CCC[C@@H]1CC(C)(C)C[C@@](C)(N)C1` (relative stereo) [Mrz 2/635] yielded a selectivity ratio [1] of 1.3 and a selectivity ratio ([2]; rotarod versus mes) of 1.4.

In the case of `CCC1(C)CCCC(C)(N)C1` (centres unmarked) [Mrz 2/620], the “TI Tract. (ED50 traction reflex impairment / ED50 MES)” value (traction reflex in mice) is reported as 1.6 and the selectivity ratio ([2]; rotarod versus mes) is reported as 1.1.

`CCC[C@@]1(C)C[C@H](C)C[C@@](C)(N)C1` (relative stereo) [Mrz 2/618] showed a selectivity ratio [1] of 1.2 and a selectivity ratio ([2]; rotarod versus mes) of 1.1.

`CCC[C@]1(C)C[C@@H](C)C[C@@](C)(N)C1` (relative stereo) [Mrz 2/619] showed a selectivity ratio [1] of 1 and a selectivity ratio ([2]; rotarod versus mes) of 1.

In the case of `CCC[C@H]1CC(C)(C)C[C@@](C)(N)C1` (relative stereo) [Mrz 2/634], the ED50 ([4]; Table 8) is reported as > 30 mg/kg, the ED50 ([4]; i.p. 30 min before, Table 7) is reported as > 30 mg/kg and the “Min Lethality” value [3] is reported as > 30 mg/kg.

With `CN(C)C1(C)CC(C)(C)CC(C)(C)C1` [Mrz 2/642] the “MES ED50” value [4] was 8.04 mg/kg i.p, the selectivity ratio [1] was 4.1 and the selectivity ratio ([2]; in vivo) was 5.3.

For `CC1(C)CC(C)(C)CC(C)(CCN)C1` [Mrz 2/662], the selectivity ratio [1] was 1 and the selectivity ratio ([2]; rotarod versus mes) was 1.2.

For `C[C@@H]1C[C@H](C)C[C@@](C)(N)C1` [MRZ 2/680, 1-amino-1(trans),3(trans),5-trimethylcyclohexane], the “TI Tract. (ED50 traction reflex impairment / ED50 MES)” value (traction reflex in mice) was 0.7.

In the case of `CC[C@]1(C)C[C@@H](C)C[C@@](C)(N)C1` (relative stereo) [Mrz 2/624], the selectivity ratio [1] is reported as 0.9 and the selectivity ratio ([2]; rotarod versus mes) is reported as 1.

For `CCC1(N)CC(C)(C)CC(C)(C)C1` [Mrz 2/600, 1-amino-1-ethyl-3,3,5,5-tetramethylcyclohexane], the IC50 (NMDA receptor [6]) was 24 µM, the selectivity ratio [1] was 0.6 and the selectivity ratio ([2]; rotarod versus mes) was 0.9. The “Min Lethality” value [3] was 50 mg/kg.

For `CC1(N)CCCCC1` [Mrz 2/641], the “Min Lethality” value [3] was > 50 mg/kg.

`CC[C@@H]1CC(C)(C)C[C@@](C)(N)C1` (relative stereo) [Mrz 2/633] showed a selectivity ratio [1] of 2.4 and a selectivity ratio ([2]; rotarod versus mes) of 3.

With `CCC1(C)CC(C)(C)CC(C)(N)C1` (centres unmarked) [Mrz 2/615, 1-amino-1,3,5,5-tetramethyl-3-ethylcyclohexane] the selectivity ratio [1] was 2.5, the selectivity ratio ([2]; rotarod versus mes) was 3.2 and the “Min Lethality” value [3] was 50 mg/kg.

With `CC1(C)CC(N)CC(C)(C)C1` [Mrz 2/557] the selectivity ratio [1] was 1 and the selectivity ratio ([2]; rotarod versus mes) was 1.4.

For `CC12CC3CC(C)(C1)CC(N)(C3)C2` [Memantine, reference compound], the “TI Tract. (ED50 traction reflex impairment / ED50 MES)” value (traction reflex in mice) is listed as 2.9 and the side effects (NMDA receptor [5]) is listed as “rarely produce side effects at the therapeutic doses”.

`C[C@@H]1CC(C)(C)C[C@@](C)(N)C1` (relative stereo) [Mrz 2/607] gave a selectivity ratio [1] of 1.3 and a selectivity ratio ([2]; rotarod versus mes) of 1.7.

For `NC12CC3CC(CC(C3)C1)C2` [Amantadine, reference compound], the “MES ED50” value [4] is listed as 184.0 mg/kg i.p and the side effects (NMDA receptor [5]) is listed as “rarely produce side effects at the therapeutic doses”.

For `CC[C@H]1CC(C)(C)C[C@@](C)(N)C1` [MRZ 2/683, 1-amino-(1S,5S)cis-3-ethyl-1,5,5-trimethylcyclohexane], the “TI Tract. (ED50 traction reflex impairment / ED50 MES)” value (traction reflex in mice) was 2.7.

For `CC(C)(N)CC1CC(C)(C)CC(C)(C)C1` [Mrz 2/645], the “TI Tract. (ED50 traction reflex impairment / ED50 MES)” value (traction reflex in mice) was 0.6.

For `CCCC1(C)CCCC(C)(N)C1` (centres unmarked) [Mrz 2/617], the “TI Tract. (ED50 traction reflex impairment / ED50 MES)” value (traction reflex in mice) was 1.1.

In the case of `CNC1(C)CC(C)(C)CC(C)(C)C1.Cl` [Mrz 2/640, N,1,3,3,5,5-hexamethylcyclohexanamine hydrochloride], the selectivity ratio [1] is reported as 2.3, the selectivity ratio ([2]; rotarod versus mes) is reported as 3.3 and the “Min Lethality” value [3] is reported as 108 mg/kg.

Compound `CCC[C@H]1CCC[C@@](C)(N)C1` (relative stereo) [Mrz 2/628] has a selectivity ratio [1] of 0.8 and a selectivity ratio ([2]; rotarod versus mes) of 1.6.

For `CCCC1(C)CC(C)(C)CC(C)(N)C1` (centres unmarked) [Mrz 2/614], the “TI Tract. (ED50 traction reflex impairment / ED50 MES)” value (traction reflex in mice) was 1.9.

Compound `C[C@@H]1CCC[C@@](C)(N)C1` (relative stereo) [Mrz 2/625] has a selectivity ratio [1] of 0.5 and a selectivity ratio ([2]; rotarod versus mes) of 1.2.

For `CC[C@H]1CC(C)(C)C[C@@](C)(N)C1` (relative stereo) [Mrz 2/632], the selectivity ratio [1] was 2.7 and the selectivity ratio ([2]; rotarod versus mes) was 3.4.

In the case of `CC[C@H]1CC(C)(C)C[C@](C)(N)C1` [MRZ 2/682, 1-amino-(1R,5S)trans-3-ethyl-1,5,5-trimethylcyclohexane], the “TI Tract. (ED50 traction reflex impairment / ED50 MES)” value (traction reflex in mice) is reported as 2.7.

Compound `CCC[C@@H]1CCC[C@@](C)(N)C1` (relative stereo) [Mrz 2/627] has a selectivity ratio [1] of 0.8 and a selectivity ratio ([2]; rotarod versus mes) of 1.

In the case of `CC[C@H]1CCC[C@@](C)(N)C1` (relative stereo) [Mrz 2/630], the IC50 (NMDA receptor [6]) is reported as 443 µM and the “Min Lethality” value [3] is reported as > 30 mg/kg.

With `CC1(C)CC(CN)CC(C)(C)C1.Cl` [Mrz 2/580, 3,3,5,5-tetramethylcyclohexylmethylamine hydrochloride] the selectivity ratio [1] was 1.6, the selectivity ratio ([2]; rotarod versus mes) was 1.3 and the “Min Lethality” value [3] was 50 mg/kg.
